Results published in article PMC3762901, “Cyclic Peptide Inhibitors of the β-Sliding Clamp in Staphylococcus aureus” (PLoS ONE, 2013).
“And” between values parts separate entries of the source, which are not always exact repeats. Equal entries are not always repeated. Where two headings read alike, the source gives them in different places. Ends that are not written are not given here. Peptide text beside a SMILES is read from it.

Key:
[1] = tested on: DNA replication in S. aureus strain 8325-4; experiment: DNA synthesis, incorporation of 3H-thymidine; format: cell-based, Staphylococcus aureus; settings: 50 μg/ml peptide; LB, 37°C; TCA precipitate, scintillation counting; repeated 3 times
Method: (§1) In order to test the direct effects of peptides III-5 and III-6 on DNA replication in S. aureus, strain 8325-4 was grown exponentially at 37°C in LB medium. Incorporation of ^3H-thymidine into the DNA was determined at various times after addition of 50 μg/ml of peptides III-5 or III-6. […] Protein synthesis, determined as incorporation of ^35S-methionine, was unaffected by peptide addition for at least 180 minutes (Fig. S1) which is well after the onset of DNA synthesis inhibition. Therefore the DNA replication inhibition is not a consequence of a more general effect on protein synthesis, and we conclude that peptide III-5 and III-6 inhibits replication by interfering with the dnaN encoded β-clamp.
Figure 5 Peptides III-5 and III-6 Inhibit DNA replication. […] Samples were taken at the indicated time-points and incorporation of ^3H into DNA was measured by liquid scintillation counting of TCA precipitated material. […]
For measuring DNA and protein synthesis, S. aureus strain 8325−4 was grown exponentially at 37°C in LB supplemented with 0.2 ml ^3H-thymidine (20 Ci/mmol,1 mCi/ml; Perkin Elmer Inc.) and uridine (50 μg/ml). […] The incorporation of ^3H into DNA was determined using a 1450 MicroBeta TriLux Microplate and Scintillation and Luminiscence counter (Perkin Elmer Inc.).

[2] = tested on: Protein synthesis in S. aureus strain 8325-4; experiment: Protein synthesis, incorporation of 35S-methionine; format: cell-based, Staphylococcus aureus; settings: 50 μg/ml peptide; for at least 180 minutes; repeated 3 times
Method: as §1
S. aureus strain 8325-4 was grown exponentially in LB supplemented with ^35S-methionine. At T=0 peptide III-5 (grey triangles) or III-6 (green squares) was added to a final concentration of 50 μg/ml. Addition of buffer (red filled circles) served as control. Samples were taken at the indicated time-points and incorporation of ^35S into protein was measured by liquid scintillation counting of TCA precipitated material. The experiment was repeated 3 times with similar result. The result from one experiment is shown.

[3] = tested on: S. aureus or S. epidermidis; format: cell-based
Excerpt: In agreement with this none of these peptides were particularly hydrophobic or cationic (Table 4). […] This could be tested by construction of deletion mutants lacking one or more of these permeases. We synthesized and tested linear counterparts of the active peptides III-5, III-6 and III-7. […] Increased antibacterial activity of peptides due to circularization has previously been described.

S. aureus = format: cell-based, Staphylococcus aureus
Method: (§2) The antibacterial activities of the purified peptides were determined against Staphylococcus epidermidis and S. aureus. […] We can conclude that some but not all of the identified cyclic peptides are able to penetrate the bacterial membrane to find their intracellular target. […] As expected none of the peptides isolated had any activity towards E. coli, whereas they inhibited growth of B. subtilis, another gram positive bacterium (data not shown).

[4] = tested on: S. aureus DnaN-DnaN interaction (β-sliding clamp dimerization); experiment: Bacterial two-hybrid (BTH) β-galactosidase assay of DnaN-DnaN interaction; format: cell-based, Staphylococcus aureus; settings: for Ability to interfere with DnaN dimerization after reduction to 8-mers: cyclic 8-mers with the sequence SXXXXXXG expressed intracellularly, not shown; for Reduction of DnaN-DnaN interaction when produced intracellularly: cyclic peptides expressed in E. coli, Fig. 3
Method: The library was screened for peptides able to disrupt DnaN-DnaN interaction of the Staphylococcus replisome by transforming into the R-BTH strain SC01 containing interacting Cya fusion proteins. Cells were plated on plates containing 5-FOA and 1 mM IPTG to induce expression of the cyclic peptides. We readily identified clones where expressed peptides restored cell viability in the presence of 5-FOA (Fig. 3A). To initially assess the activity of the selected peptides we determined their ability to reduce DnaN-DnaN interaction in the original two hybrid system.
Figure 3 Identification of peptides that interfere with DnaN-DnaN interaction. […] After screening of our SICLOPPS library, growth was restored in 7 clones.A. (B) The cyclic peptides identified in (A) were expressed in the original bacterial two-hybrid strain (BTH101) containing T18:DnaN and DnaN:T25 fusion plasmids and the level of β-galactosidase activity was determined as described in Materials and Methods.
Bacterial two-hybrid assay was performed as described previously. Derivatives of plasmids pUT18 and p25N encoding replication proteins were constructed by cloning PCR-amplified DNA fragments in frame with the T25 and T18 fragments of cya. T18 and T25 fusions were transformed into BTH101, and plated on plates containing 40 μg/ml of 5-bromo-4-chloro-indolyl-β-D-galactoside (X-gal) and relevant antibiotics. […] For β-galactosidase assays, cells were grown exponentially at 30°C in LB supplemented with 0.5 mM IPTG, and β-galactosidase activities were measured as described by.

S. aureus strain 8325-4 [5] = experiment: Growth (colony forming units) of S. aureus with or without DnaN overproduction after peptide addition; format: cell-based, Staphylococcus aureus; settings: 40 μg/ml peptide, LB, 37°C, repeated 4 times; for Bacterial growth of uninduced cultures after peptide addition: 8 hours duration, colony forming units; for Bacterial growth of cultures overproducing DnaN after peptide addition: dnaN induced with 10 μM CdCl2 3 hours before (pSC141)
Method: To ensure that the antibacterial effects of peptides III-5 and III-6 were the result of direct interaction of these peptides with the β-clamp, we decided to overproduce DnaN in S. aureus cells. The dnaN gene was cloned under control of the cadmium induclible pCAD promoter of plasmid pCN51 [37]. Cells were grown exponentially at 37°C in LB medium and 3 hours prior to peptide addition expression of dnaN was induced by addition of 10 μM CdCl2. At time T = 0 peptides III-5 or III-6 were added to a final concentration of 40 μg/ml which is very close to the MIC value for both of these peptides (Fig. 4).
Figure 4 Overproduction of DnaN in S. aureus relieves the growth inhibition imposed by peptides III-5 and […]. S. aureus strain 8325-4 containing either the vector plasmid pCN51 (black filled squares) or plasmid pSC141 (grey triangles) was grown exponentially at 37°C in LB medium supplemented with 10 μg/ml erythromycin. CdCl2 was added to all cultures to a final concentration of 10 μM to induce overproduction of DnaN from pSC141 three hours prior to peptide addition. At T = 0, 40 μg/ml of peptide III-5 (middle panel) or III-6 (bottom panel) was added to the cultures. The number of colony forming units was determined by plating. The experiment were repeated 4 times with similar results.

S. epidermidis = format: cell-based, Staphylococcus epidermidis; settings: for Potency against S. epidermidis compared with S. aureus: cyclic peptides, data not shown
Method: as §2

S. aureus strain 8325-4 [6] = experiment: Fluorescence microscopy with DAPI staining (cell size, DNA content); format: cell-based, Staphylococcus aureus; settings: 50 μg/ml; LB, 37°C
Excerpt: The effect of peptides III-5 and III-6 on cell size and DNA content was visualized by fluorescence microscopy. […] A likely explanation is that peptide III-6, through its inhibitory effect on DNA synthesis, also results in an inability for cells to divide. Similar observations have been made for E. coli where failure to complete chromosome replication result in division inhibition and filamentation.
Figure 7 Peptide III-6 affect S. aureus cell size, morphology and DNA content. S. aureus strain 8325−4 was grown exponentially at 37°C in LB medium. […] Cells were stained with DAPI prior to fluorescence microscopy (Materials and Methods).
S. aureus strain 8325-4 or B. subtilis strain 168 was grown exponentially at 37°C in LB. […] The cells were stained with the live/dead stain according to the manufacturer. Phase-contrast and fluorescence images were acquired using a Leica DM5000B microscope with a×100 HCX PL APO NA 1.4 objective and a Leica DFC350FX cooled charge-coupled device camera controlled through FW4000 software (version 1.2.1; Leica Microsystems).

[7] = biological target: DnaN (β), β-sliding clamp of S. aureus (S. aureus) (UniProt P0A024)
Sequence of UniProt P0A024 (P0A024 whole entry): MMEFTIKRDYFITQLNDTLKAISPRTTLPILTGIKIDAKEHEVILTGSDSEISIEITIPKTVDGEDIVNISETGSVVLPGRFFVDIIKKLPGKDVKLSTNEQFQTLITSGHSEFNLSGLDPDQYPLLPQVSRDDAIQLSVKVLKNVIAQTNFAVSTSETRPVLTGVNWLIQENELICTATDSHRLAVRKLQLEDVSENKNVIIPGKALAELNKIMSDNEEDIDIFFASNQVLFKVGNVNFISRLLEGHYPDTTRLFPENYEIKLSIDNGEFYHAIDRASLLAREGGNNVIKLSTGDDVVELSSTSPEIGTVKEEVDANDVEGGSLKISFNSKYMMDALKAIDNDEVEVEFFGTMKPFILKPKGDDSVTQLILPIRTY

In the case of CC(C)C[C@@H]1NC(=O)[C@H](Cc2ccccc2)NC(=O)[C@H](C(C)C)NC(=O)[C@H](CCCNC(=N)N)NC(=O)[C@H](CS)NC(=O)[C@H](CS)NC(=O)CNC(=O)[C@H](CS)NC1=O [III-5] (cyclo(CRVFLCGC)), the “Accumulation of DNA (3H-thymidine incorporation)” value [1] is reported as “severely reduced accumulation of DNA”, the “Protein synthesis (35S-methionine incorporation)” value [2] is reported as “unaffected” and the “MIC values (range given for the three active cyclic peptides)” value (“MIC values” for short) ([3]; cyclic peptides, summary over S. aureus (III-5, III-6) and S. epidermidis (III-7)) is reported as 20−50 μg/ml. The “MIC for cyclic peptide” value (S. aureus; cyclic 8-mer CRXXXXXX, determined for S. aureus, highest concentration tested 100 μg/ml) was 50 µg/mL, the “MIC for cyclic peptide (molar)” value (S. aureus; cyclic 8-mer CRXXXXXX, determined for S. aureus, value in brackets) was 57 µM and the “Ability to interfere with DnaN dimerization after reduction to 8-mers” value (“Ability to interfere … after reduction to 8-mers” for short) [4] was “retaining their ability to interfere with DnaN dimerization”. The “Reduction of DnaN-DnaN interaction when produced intracellularly” value (“Reduction of DnaN-DnaN interaction” for short) [4] was “efficient in reducing DnaN-DnaN interaction”, the “Bacterial growth of uninduced cultures after peptide addition” value (S. aureus strain 8325-4 [5]) was “cessation of bacterial growth” and the “Bacterial growth of cultures overproducing DnaN after peptide addition” value (S. aureus strain 8325-4 [5]) was “continued growth”. For the same compound, the “Potency against S. epidermidis compared with S. aureus” value (S. epidermidis) was “somewhat more potent against S. epidermidis”.

In the case of CC(C)C[C@@H]1NC(=O)CNC(=O)[C@H](CCC(N)=O)NC(=O)[C@H](CO)NC(=O)[C@H](CCCNC(=N)N)NC(=O)[C@H](CS)NC(=O)[C@H](CCCCN)NC(=O)[C@H](Cc2ccccc2)NC1=O [III-6] (cyclo(CRSQGLFK)), the “Accumulation of DNA (3H-thymidine incorporation)” value [1] is reported as “severely reduced accumulation of DNA”, the “Protein synthesis (35S-methionine incorporation)” value [2] is reported as “unaffected” and the “MIC values” value [3] is reported as 20−50 μg/ml. The Cell size (S. aureus strain 8325-4 [6]) was “increased cell size”, the “DNA distribution between cells (DAPI staining)” value (S. aureus strain 8325-4 [6]) was “uneven DNA distribution between cells” and the “Ability to interfere … after reduction to 8-mers” value [4] was “retaining their ability to interfere with DnaN dimerization”. For the same compound, the “Reduction of DnaN-DnaN interaction” value [4] was “efficient in reducing DnaN-DnaN interaction”, the “Bacterial growth of uninduced cultures after peptide addition” value (S. aureus strain 8325-4 [5]) was “cessation of bacterial growth” and the “Bacterial growth of cultures overproducing DnaN after peptide addition” value (S. aureus strain 8325-4 [5]) was “continued growth”. The “Potency against S. epidermidis compared with S. aureus” value (S. epidermidis) was “somewhat more potent against S. epidermidis”.

CC(C)[C@@H]1NC(=O)[C@H](Cc2c[nH]c3ccccc23)NC(=O)[C@H](C(C)C)NC(=O)[C@H](Cc2c[nH]cn2)NC(=O)CNC(=O)[C@H](CCCNC(=N)N)NC(=O)[C@H](CS)NC(=O)[C@H](CC(=O)O)NC1=O [III-7] (cyclo(CRGHVWVD)) was tested, and the “MIC values” value [3] was 20−50 μg/ml, the “Ability to interfere … after reduction to 8-mers” value [4] was “retaining their ability to interfere with DnaN dimerization” and the “Reduction of DnaN-DnaN interaction” value [4] was “efficient in reducing DnaN-DnaN interaction”.

For CC(C)C[C@@H]1NC(=O)[C@H](CO)NC(=O)[C@H](CCC(=O)O)NC(=O)[C@H](Cc2ccccc2)NC(=O)[C@H]([C@@H](C)O)NC(=O)[C@H](CO)NC(=O)[C@H](CCCNC(=N)N)NC(=O)[C@H](CS)NC1=O [III-8] (cyclo(CRSTFESL)), the “MIC for cyclic peptide” value (S. aureus) was greater than 100 µg/mL and the “Reduction of DnaN-DnaN interaction” value [4] was “efficient in reducing DnaN-DnaN interaction”.

For CC(C)C[C@H](NC(=O)[C@H](Cc1ccccc1)NC(=O)[C@@H](NC(=O)[C@H](CCCNC(=N)N)NC(=O)[C@@H](N)CS)C(C)C)C(=O)N[C@@H](CS)C(=O)NCC(=O)N[C@@H](CS)C(=O)O [linear III-5] (H-CRVFLCGC-OH), the “MIC for linear peptide” value (S. aureus) was greater than 560 µg/mL.

In the case of CC(C)C[C@H](NC(=O)[C@@H](NC(=O)[C@H](Cc1ccccc1)NC(=O)[C@H](CC(C)C)NC(=O)[C@H](Cc1c[nH]c2ccccc12)NC(=O)[C@H](CS)NC(=O)[C@H](CCCNC(=N)N)NC(=O)[C@@H](N)CS)C(C)C)C(=O)O [linear IV-N8] (H-CRCWLFVL-OH), the “MIC for linear peptide” value (S. epidermidis) is reported as >1124 ^4 (>1.08) μg/ml.

CRGHVWVD [linear III-7] was tested, and the “MIC for linear peptide” value (S. aureus) was greater than 560 µg/mL.

For CRSQGLFK [linear III-6], the “MIC for linear peptide” value (S. aureus) was greater than 560 µg/mL.

For “cyclo(CRCWLFVL) (cysteine pairing not given here) [IV-N8, cyclic 8-mer CRCWLFVL synthesized via FMOC SPPS]”, the “Ability to interfere … after reduction to 8-mers” value [4] was “retaining their ability to interfere with DnaN dimerization” and the “MIC for cyclic peptide” value (S. epidermidis; cyclic 8-mer CRXXXXXX, determined for S. epidermidis, highest concentration tested 100 μg/ml) was greater than 100 µg/mL.

“purified cyclic peptide III-5 (CRVFLCGC)” was tested, and the MIC for cyclic peptide, determined for S. aureus [7] was 50 μg/ml and 57 μM.

In the case of “purified cyclic peptide III-6 (CRSQGLFK)”, the MIC for cyclic peptide, determined for S. aureus [7] is reported as 50 μg/ml and 54 μM.
